# Measured values published in patent US7807877B2, “Genetic sequences having methyltransferase activity and uses therefor” (International Flower Developments Pty. Ltd., priority 2002, dated 2010).
# Values joined by “and” are separate entries in the source; they are usually repeats but may differ in a detail not shown here. Equal values may be shown once.
# Legend:
# [1] = tested on: Torenia FMT (TFMT); experiment: HPLC assay of methyltransferase activity, E. coli extract containing pCGP3090; assay type: biochemical, Torenia hybrida; details: for product of flavonoid methyltransferase activity with the substrate: Torenia FMT in pCGP3090, to a lesser degree petunidin; for % of anthocyanidin detected cya / % of anthocyanidin detected del / % of anthocyanidin detected mal / % of anthocyanidin detected peo / % of anthocyanidin detected pet: pCGP3090 (TFMT), percentage of total anthocyanidins
# Procedure: (§1) The assay reactions were incubated at 30° C. for 30 minutes. Fifty microlitres of a chloroform mix (CHCl3:methanol/1% HCl, 2:1) was added and the mixture was then vortexed to stop the reactions. The phases were separated by centrifugation at 13,000 rpm for 5 minutes and 50 μL of the upper phase was transferred into a clean tube and the contents subsequently hydrolysed by the addition of 12.5 μL of 10M HCl. The tube was then placed in a boiling waterbath for 30 minutes and the contents subsequently desiccated under vacuum. The residue was resuspended in 2-3 μL of methanol/1% HCl and spotted onto a TLC plate alongside standard samples of petunidin, malvidin and delphinidin. The anthocyanidins were separated in a Forestal system (HOAc:water:HCl; 30:10:3) (Markham, Techniques of flavonoid identification, Academic Press, London, 1982) and the TLC was exposed to an autoradiographic film (Kodak) for 16 hours at −70° C.
# (§2) Anthocyanidins in the reaction mixture were analysed by HPLC via gradient elution using gradient conditions of 50% B to 60% B over 10 minutes, then 60% B for 10 minutes and finally 60% B to 100% B over 5 minutes where solvent A consisted of TFA:H2O (5:995) and solvent B consisted of acetonitrile:TFA:H2O (500:5:495). An Asahi Pac ODP-50 cartridge column (250 mm×4.6 mm ID) was used for the reversed phase chromatographic separations. […].
# (§3) The enzyme activities of the peptides encoded by Petunia and Torenia FMT cDNA clones in pCGP3086 and pCGP3090, respectively were further assessed using the substrates delphinidin 3-glucoside and delphinidin 3-rutinoside and delphinidin 3,5-diglucoside under assay conditions as previously described (Table 15, Example 9) except that the ^14C-labelled SAM was replaced with non radioactive SAM at 2 mg/mL and the substrates (delphinidin 3-glucoside and delphinidin 3-rutinoside and delphinidin 3,5-diglucoside) at 2 mg/mL.
# [2] = tested on: Petunia FMT (E20); experiment: Methyltransferase assay (14C-SAM, TLC) of crude homogenate of E. coli containing pCGP3086; assay type: biochemical, Petunia hybrida; set-up: key to Petunidin (product on TLC) / Malvidin (product on TLC): yes = detection of product on TLC; no = no reaction observed as determined by absence of product
# Procedure: 10 mLs of LB containing ampicillin at 100 μg/mL and kanamycin at 25 μg/mL. (LB/Amp100+Kan25) were inoculated with a single colony of pCGP3086 or pQE30 in M15 (pREP4) cells. […] IPTG was then added to a final concentration of 1 mM and the culture was further incubated at 30° C. with shaking for 8 hours. The cells were pelleted by centrifugation at 3500 rpm for 10 minutes at 4° C. The pellet was resuspended in 1 mL of 0.1 M NaPi, pH 7.5, 4 mM MgCl2. […] The mixture was then sonicated for two bursts of 10 seconds at output 2-3 and then incubated on ice for 30 minutes. The cell debris was pelleted by centrifugation at 14,000 rpm for 20 minutes at 4° C. The supernatant was passed through a NAP-10 column (Pharmacia) and 1.5 mL of the sample collected in 0.1 M NaPi, pH 7.5, 4 mM MgCl2. […] (1983), supra. Methyltransferase assays were set up according to Table 10 in a total reaction volume of 50 μL. […] The assay reactions were incubated at 30° C. for 30 minutes. Fifty microlitres of a chloroform mix (CHCl3:methanol/1% HCl, 2:1) was added and the mixture was then vortexed to stop the reactions. […] The tube was then placed in a boiling waterbath for 30 minutes and the contents subsequently desiccated under vacuum.
# [3] = tested on: Petunia FMT (E20); experiment: HPLC assay of methyltransferase activity, E. coli extract containing pCGP3086; assay type: biochemical, Petunia hybrida; details: for product of flavonoid methyltransferase activity with the substrate: Petunia FMT (E20) in pCGP3086, to a lesser degree malvidin; for % of anthocyanidin detected cya / % of anthocyanidin detected del / % of anthocyanidin detected mal / % of anthocyanidin detected peo / % of anthocyanidin detected pet: pCGP3086 (PFMT), percentage of total anthocyanidins
# Procedure: as §1, §2, §3
# [4] = Reconstruction experiments: anthocyanins added to petal juice of Medeo roses; assay type: physicochemical, Rosa hybrida
# Procedure: The rose cultivar Medeo generally produces cream-colored to pale apricot flowers (RHSCC 158C to 159A). […] The estimated vacuolar pH of Medeo petals is around 4.6. The petal juice of Medeo roses was extracted by grinding one petal with 50 μL of water using a mortar and pestle. The petal juice was collected and mixed with 10-20 μL of 1-2 mg/g delphinidin 3-glucoside, delphinidin 3,5-diglucoside and malvidin 3,5-diglucoside. The colors observed were described according to the Royal Horticultural Society Color Charts (RHSCC) (The Royal Horticultural Society, London) (Table 8).
# [5] = tested on: rose petals; experiment: Incubation of excised rose petal segments with precursors or end products; assay type: cell-based, Rosa hybrida; details: around 16 hours; for Color at cut edge after incubation in DHM: around 23° C.; for Color at cut edge upon production of delphinidin: incubation in dihydromyricetin 1-2 mg/mL
# Procedure: To determine whether rose petals contained the enzymes necessary for conversion of dihydromyricetin to delphinidin, precursor-feeding experiments with dihydromyricetin were initiated.
# Petal segments of a selection of commercial cultivars of roses (Toplesse, Lambada, Medeo, Pamela, Sonia, Oceana, Mystique) were placed in solutions of 1-2 mg/mL dihydromyrectin or water only and incubated for around 16 hours in a growth room at a temperature of around 23° C. Pink/purple colors were observed near the cut edges of the petals (Table 6).
# Petal segments of roses were placed in solutions of 1-2 mg/mL malvidin 3,5-diglucoside, 1-2 mg/mL dihydromyrectin or water only and incubated for around 16 hours in a growth room at a temperature of around 23° C. The production of colors in the purple range were observed near the cut edges of the petals upon incubation with dihydromyrectin or malvidin 3,5-diglucoside (Table 7).
# [6] = pCGP3090, substrate 2 mg/mL, SAM 2 mg/mL, duplicate a/b
# [7] = pCGP3086 crude homogenate + 14C-SAM (Table 16, positive control)
# [8] = pCGP3086 crude homogenate + 14C-SAM, 30° C., 30 minutes (Table 11)
# [9] = pCGP3086, substrate 2 mg/mL, SAM 2 mg/mL, duplicate a/b
# [10] = duplicate a/b, listed as D3, 5G
# [11] = pCGP3090, substrate 2 mg/mL, SAM 2 mg/mL, duplicate a/b, listed as D3, 5G
# [12] = rose cultivar Lambada (orange petal), 1-2 mg/mL
# [13] = rose cultivar Toplesse (pink petal), 1-2 mg/mL
smiles,measurement,setting,value
"C[C@@H]1O[C@@H](OC[C@H]2O[C@@H](Oc3cc4c(O)cc(O)cc4[o+]c3-c3cc(O)c(O)c(O)c3)[C@H](O)[C@@H](O)[C@@H]2O)[C@H](O)[C@H](O)[C@H]1O [D3R, delphinidin 3-rutinoside]",product of flavonoid methyltransferase activity with the substrate,[1],predominantly malvidin
same,Predominant FMT Activity,[1]; pCGP3090,3′5′FMT
same,% of anthocyanidin detected cya,[1]; duplicate a/b,0.0%
same,% of anthocyanidin detected del,[1]; duplicate a/b,13.2% and 14.6%
same,% of anthocyanidin detected mal,[1]; duplicate a/b,80.9% and 79.1%
same,% of anthocyanidin detected peo,[1]; duplicate a/b,1.9%
same,% of anthocyanidin detected pet,[1]; duplicate a/b,4.0% and 4.3%
same,Anthocyanidins (mg/g) Cya,[1]; [6],0 mg/g
same,Anthocyanidins (mg/g) Del,[1]; [6],2.5 mg/g and 2.8 mg/g
same,Anthocyanidins (mg/g) Mal,[1]; [6],15.6 mg/g and 15.1 mg/g
same,Anthocyanidins (mg/g) Peo,[1]; [6],0.4 mg/g
same,Anthocyanidins (mg/g) Pet,[1]; [6],0.8 mg/g
same,"Petunidin and malvidin, the methylated derivatives of delphinidin, in assay reactions","[2]; crude homogenates from pCGP3086 cells, 14C-SAM",detected
same,Malvidin (product on TLC),[2]; [7],yes
same,Petunidin (product on TLC),[2]; [7],yes
same,Malvidin (product on TLC),[2]; [8],yes
same,Petunidin (product on TLC),[2]; [8],yes
same,product of flavonoid methyltransferase activity with the substrate,[3],predominantly petunidin
same,Predominant FMT Activity,[3]; pCGP3086,3′FMT
same,% of anthocyanidin detected cya,[3]; duplicate a/b,2.5%
same,% of anthocyanidin detected del,[3]; duplicate a/b,21.2% and 21.7%
same,% of anthocyanidin detected mal,[3]; duplicate a/b,16.6% and 17.4%
same,% of anthocyanidin detected peo,[3]; duplicate a/b,1.2% and 1.1%
same,% of anthocyanidin detected pet,[3]; duplicate a/b,58.5% and 57.4%
same,Anthocyanidins (mg/g) Cya,[3]; [9],0.4 mg/g and 0.5 mg/g
same,Anthocyanidins (mg/g) Del,[3]; [9],3.7 mg/g and 4.5 mg/g
same,Anthocyanidins (mg/g) Mal,[3]; [9],2.9 mg/g and 3.6 mg/g
same,Anthocyanidins (mg/g) Peo,[3]; [9],0.2 mg/g
same,Anthocyanidins (mg/g) Pet,[3]; [9],10.2 mg/g and 11.9 mg/g
"OC[C@H]1O[C@@H](Oc2cc3c(O[C@@H]4O[C@H](CO)[C@@H](O)[C@H](O)[C@H]4O)cc(O)cc3[o+]c2-c2cc(O)c(O)c(O)c2)[C@H](O)[C@@H](O)[C@@H]1O [D35G, delphinidin 3,5-diglucoside]",product of flavonoid methyltransferase activity with the substrate,[1],predominantly malvidin
same,Predominant FMT Activity,[1]; pCGP3090,3′5′FMT
same,% of anthocyanidin detected cya,[1]; duplicate a/b,0.0%
same,% of anthocyanidin detected peo,[1]; duplicate a/b,0.0%
same,% of anthocyanidin detected del,[1]; [10],22.9% and 28.9%
same,% of anthocyanidin detected mal,[1]; [10],70.0% and 66.9%
same,% of anthocyanidin detected pet,[1]; [10],7.1% and 4.3%
same,Anthocyanidins (mg/g) Cya,[1]; [6],0 mg/g
same,Anthocyanidins (mg/g) Peo,[1]; [6],0 mg/g
same,Anthocyanidins (mg/g) Mal,[1]; [11],7.3 mg/g and 12.4 mg/g
same,Anthocyanidins (mg/g) Pet,[1]; [11],0.7 mg/g and 0.8 mg/g
same,COLOR,[4]; pH 4.6,violet
same,RHSCC#,[4]; pH 4.6,88A
same,COLOR,[4]; pH 4.9,violet
same,RHSCC#,[4]; pH 4.9,88A
same,product of flavonoid methyltransferase activity with the substrate,[3],predominantly petunidin
same,Predominant FMT Activity,[3]; pCGP3086,3′FMT
same,% of anthocyanidin detected peo,[3]; duplicate a/b,0.0%
same,% of anthocyanidin detected cya,[3]; [10],0.0% and 2.2%
same,% of anthocyanidin detected del,[3]; [10],45.6% and 55.9%
same,% of anthocyanidin detected mal,[3]; [10],11.0% and 6.0%
same,% of anthocyanidin detected pet,[3]; [10],43.4% and 35.9%
same,Anthocyanidins (mg/g) Peo,[3]; [9],0 mg/g
same,Anthocyanidins (mg/g) Mal,"[3]; pCGP3086, substrate 2 mg/mL, SAM 2 mg/mL, duplicate a/b, listed as D3, 5G",0.7 mg/g and 1.1 mg/g
"O=C1c2c(O)cc(O)cc2O[C@H](c2cc(O)c(O)c(O)c2)[C@H]1O [DHM, dihydromyricetin]",TLC analysis of the anthocyanidins in the pink/purple segments,"[5]; petal segments of commercial rose cultivars, 1-2 mg/mL",production of delphinidin
same,Color at cut edge after incubation in DHM,[5]; [12],pink/purple
same,Color at cut edge upon production of delphinidin,[5]; rose cultivar Lambada (orange petal),pink/purple
same,Color at cut edge after incubation in DHM,"[5]; rose cultivar Medeo (pale apricot petal), 1-2 mg/mL",pink/purple
same,Color at cut edge after incubation in DHM,"[5]; rose cultivar Mystique (apricot petal), 1-2 mg/mL",pink/purple
same,Color at cut edge after incubation in DHM,"[5]; rose cultivar Oceana (cream petal), 1-2 mg/mL",pink/purple
same,Color at cut edge after incubation in DHM,"[5]; rose cultivar Pamela (white/pale pink petal), 1-2 mg/mL",pink/purple
same,Color at cut edge after incubation in DHM,"[5]; rose cultivar Sonia (apricot/pink petal), 1-2 mg/mL",pink/purple
same,Color at cut edge after incubation in DHM,[5]; [13],pink/purple
same,Color at cut edge upon production of delphinidin,[5]; rose cultivar Toplesse (pink petal),pink/purple
"COc1cc(-c2[o+]c3cc(O)cc(O[C@@H]4O[C@H](CO)[C@@H](O)[C@H](O)[C@H]4O)c3cc2O[C@@H]2O[C@H](CO)[C@@H](O)[C@H](O)[C@H]2O)cc(OC)c1O [M35G, malvidin 3,5-diglucoside]",COLOR,[4]; pH 4.6,violet-blue
same,COLOR,[4]; pH 4.9,violet-blue
same,RHSCC#,[4]; pH 4.9,90A
same,Color at cut edge after incubation with malvidin,[5]; [12],violet/purple
same,Color at cut edge after incubation with malvidin,[5]; [13],violet/purple
